Patent US20260315434A1, “USE OF GUAIACOL SESQUITERPENE LACTONE DERIVATIVES” (NANJING UNIVERSITY OF CHINESE MEDICINE, priority 2023, published 2026)
Marks after values point to notes of the source that are not given here.

Tests used:
[1] = test system: renal injury markers (Ngal, Havcr1) in kidney tissue; assay: Folic acid-induced acute kidney injury, renal injury marker mRNA; format: in vivo, C57BL/6 mice; set-up: scale not given here; conditions: folic acid acute model
Experimental: (§1) Except for the normal group, all other mice were administered folic acid (250 mg/kg) dissolved in 0.9% NaHCO3 solution via intraperitoneal injection to establish an acute kidney injury model.
(§2) The blood was allowed to stand at room temperature for 2 hours, then centrifuged at 3000 rpm for 20 minutes. Serum was aspirated, aliquoted, and stored at −70° C. for future use. Following blood collection, euthanize mice by cervical dislocation. Perform laparotomy to remove kidneys, dissect out perirenal fat and capsules. […] Paraffin-embedded specimens undergo HE staining; remaining tissue is stored at −70° C. for future use.

[2] = test system: inflammatory cytokines (TNF, IL-6, IL-1) in renal tissue; assay: Folic acid-induced acute kidney injury, renal inflammatory factor mRNA; format: in vivo, C57BL/6 mice; conditions: folic acid acute model
Experimental: as §1, §2

[3] = test system: renal injury markers (Ngal, Havcr1) in kidney tissue; assay: Unilateral ureteral ligation (UUO) chronic kidney injury, renal injury marker mRNA; format: in vivo, C57BL/6 mice; set-up: unit not given here; conditions: UUO chronic model
Source text: (§3) Chronic Kidney Injury: Mice were randomly divided into five groups. […] Except for the sham-operated mice in the normal group (where only the left ureter was exposed without further manipulation), all other mice underwent unilateral ureteral ligation to establish a chronic kidney injury model as follows: The abdominal skin was disinfected with iodine solution followed by alcohol. An incision was made, and the abdominal layers were dissected sequentially. The left ureter was fully exposed and dissected. A double ligation was performed at the bladder-proximal end of the left ureter using absorbable suture material, followed by closure.
as §2

[4] = test system: inflammatory cytokines (TNF, IL-6, IL-1) in renal tissue; assay: UUO chronic kidney injury, renal inflammatory factor mRNA; format: in vivo, C57BL/6 mice; set-up: unit not given here; conditions: UUO chronic model
Source text: as §3, §2

[5] = test system: fibrosis-related factors (α-Sma, Col1a1, Tgfb1) in kidney tissue; assay: UUO chronic kidney injury, renal fibrosis-related factor mRNA; format: in vivo, C57BL/6 mice; set-up: unit not given here; conditions: UUO chronic model
Source text: as §3, §2

T cells / MDSCs = assay: Promotion of T cell proliferation in a co-culture model of MDSCs and T cells; format: cell-based, mouse
Method in brief: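 Bone-marrow MDSCs, after compound treatment, were co-cultured 48 h at 1:1 with CFDA-SE-labelled (10 μM solution), activated splenic T cells. Proliferation of CD3+ T cells was read by flow cytometry.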

Hepa1-6 cells = assay: Antitumor effect in Hepa1-6 mouse hepatocellular carcinoma subcutaneous xenograft model; format: in vivo, C57BL/6 mice; conditions: 40 μmol/kg/d oral, 2 weeks; for Tumor weight: solvent 0.92 ± 1.41
T cells = assay: Proportion of T cells in tumor and spleen of H22 xenograft mice (flow cytometry); format: in vivo, BALB/c mice; conditions: for Spleen T cells (%) / Tumor T cells (%): 40 μmol/kg/day, oral, 2 weeks, flow cytometry; for proportion of T cells in tumor tissues and spleens: compared with solvent control, result in words
Experimental: Once all tumors were dissected, nail-sized tumor pieces were transferred to 1.5 mL Eppendorf tubes and minced with scissors. Transfer the minced tumor tissue suspension to a 15 mL centrifuge tube containing 3-5 mL of digestive enzymes (Collagenase IV 1 mg/mL, Hyaluronidase 1 mg/mL, DNase 120 U/mL). Incubate at 37° C. on a shaking incubator at 200 rpm for 1 hour. After digestion, pass the mixture through a 200-mesh sieve to obtain the tumor cell suspension. Centrifuge the resulting tumor suspension at 1600 rpm for 5 min, aspirate the supernatant, resuspend cells in 1 mL of 1×PBS per tube. Transfer the cell suspension to a 1.5 mL Eppendorf tube, centrifuge at 1600 rpm for 5 min, remove the supernatant, resuspend cells in 100 μL of 1×PBS per tube, add 1 μL of dead/live dye to each tube, mix thoroughly, and incubate at room temperature in the dark for 15 min. […] Position the spleen on a 200-mesh cell strainer. Gently press the spleen using a 10 mL syringe needle. […] Transfer the splenocyte suspension into a 15 mL centrifuge tube. Centrifuge at 1600 rpm for 5 min to collect cells. Wash once with 1×PBS. Add 3 mL red blood cell lysis buffer (diluted with ddH2O) to each tube and incubate for 5 min. After lysis, add 10 mL 1×PBS to each tube to terminate lysis. Centrifuge at 1600 rpm for 5 min. Add 1 mL 1×PBS to each 15 mL centrifuge tube, transfer to 1.5 mL EP tubes, and centrifuge at 1600 rpm for 5 min. Add 1×PBS to each tube containing stained tumor cells and lysed spleen cells for one wash, centrifuge at 1600 rpm for 5 min, and remove the supernatant. Resuspend tumor cells and spleen cells separately in 100 μL 1×PBS. Add 1 μL FcX™ antibody to each tube and incubate at room temperature in the dark for 10 min. After incubation, sequentially add 1 μL each of CD45, CD3, and CD8 antibodies to each tube. Incubate at 4° C. in the dark for 30 min. After staining, wash once with 1 mL PBS. Centrifuge at 1600 rpm for 5 min. Discard the supernatant. Resuspend cells in 300 μL 1×PBS. Filter the cell suspension into a flow cytometry tube and proceed to instrument analysis.

CT26 cells = assay: Antitumor effect in CT26 colon cancer mouse subcutaneous model; format: in vivo, BALB/c mice; conditions: oral, 3 weeks

CN(C)C[C@@H]1C(=O)O[C@H]2[C@H]1CC[C@@]1(C)C[C@]13CC[C@@](C)(O)[C@H]23 [Compound 21]
Havcr1 mRNA expression, kidney ([1]; 0.1 mg/kg oral): 170.08 ± 33.10 | Ngal mRNA expression, kidney ([1]; 0.1 mg/kg oral): 25.75 ± 2.80 | Havcr1 mRNA expression, kidney ([1]; 1 mg/kg oral, 1 mg/kg): 83.11 ± 16.85 | Ngal mRNA expression, kidney ([1]; 1 mg/kg oral, 1 mg/kg): 13.08 ± 2.41 | Il1 mRNA expression, kidney ([2]; 0.1 mg/kg oral): 2.07 ± 0.38 | Il6 mRNA expression, kidney ([2]; 0.1 mg/kg oral): 6.47 ± 0.53 | Tnf mRNA expression, kidney ([2]; 0.1 mg/kg oral): 2.60 ± 0.62 | Il1 mRNA expression, kidney ([2]; 1 mg/kg oral, 1 mg/kg): 1.45 ± 0.23 | Il6 mRNA expression, kidney ([2]; 1 mg/kg oral, 1 mg/kg): 5.61 ± 2.10 | Tnf mRNA expression, kidney ([2]; 1 mg/kg oral, 1 mg/kg): 2.42 ± 0.35 | Havcr1 mRNA expression, kidney ([3]; 0.1 mg/kg oral): 11.90 ± 4.52 | Ngal mRNA expression, kidney ([3]; 0.1 mg/kg oral): 35.77 ± 7.67 | Havcr1 mRNA expression, kidney ([3]; 1 mg/kg oral, 1 mg/kg): 7.25 ± 0.80 | Ngal mRNA expression, kidney ([3]; 1 mg/kg oral, 1 mg/kg): 19.42 ± 1.55 | Il1 mRNA expression, kidney ([4]; 0.1 mg/kg oral): 5.32 ± 0.56 | Il6 mRNA expression, kidney ([4]; 0.1 mg/kg oral): 14.31 ± 6.01 | Tnf mRNA expression, kidney ([4]; 0.1 mg/kg oral): 7.10 ± 1.93 | Il1 mRNA expression, kidney ([4]; 1 mg/kg oral, 1 mg/kg): 3.55 ± 0.50 | Il6 mRNA expression, kidney ([4]; 1 mg/kg oral, 1 mg/kg): 5.61 ± 2.10 | Tnf mRNA expression, kidney ([4]; 1 mg/kg oral, 1 mg/kg): 7.53 ± 0.68 | Col1a1 mRNA expression, kidney ([5]; 0.1 mg/kg oral): 11.79 ± 1.18 | Tgfb1 mRNA expression, kidney ([5]; 0.1 mg/kg oral): 1.76 ± 0.05 | α-Sma mRNA expression, kidney ([5]; 0.1 mg/kg oral): 2.02 ± 0.39 | Col1a1 mRNA expression, kidney ([5]; 1 mg/kg oral, 1 mg/kg): 8.27 ± 1.15 | Tgfb1 mRNA expression, kidney ([5]; 1 mg/kg oral, 1 mg/kg): 1.53 ± 0.14 | α-Sma mRNA expression, kidney ([5]; 1 mg/kg oral, 1 mg/kg): 1.39 ± 0.04 | T-cell proliferation rate (%) (T cells / MDSCs; 1 μM, MDSCs treated 12 hours, co-culture of MDSCs and T cells, compared to the control group): + (T-cell proliferation rate within the 0-20% range compared to the control group)

CC1=C2CC[C@@](C)(OC(=O)N3CCCCC3)[C@@H]2[C@H]2OC(=O)[C@@H](CN(C)C)[C@@H]2CC1 [Compound 102]
Tumor Inhibition Rate (Hepa1-6 cells): 96.67% | Tumor weight (Hepa1-6 cells): 0.03 ± 0.04 g | Spleen T cells (%) (T cells): 31.69 ± 6.44 % | Tumor T cells (%) (T cells): 20.86 ± 4.15 % | proportion of T cells in tumor tissues and spleens (T cells): significantly increased

CC1=C2CC[C@@](C)(OC(=O)N3CCCC3)[C@@H]2[C@H]2OC(=O)[C@@H](CN3CCCC3)[C@@H]2CC1 [Compound 103]
Havcr1 mRNA expression, kidney ([1]; 0.1 mg/kg oral): 452.14 ± 212.69 | Ngal mRNA expression, kidney ([1]; 0.1 mg/kg oral): 148.49 ± 116.61 | Havcr1 mRNA expression, kidney ([1]; 1 mg/kg oral): 415.10 ± 120.96 | Ngal mRNA expression, kidney ([1]; 1 mg/kg oral): 85.57 ± 27.78 | Havcr1 mRNA expression, kidney ([1]; 10 mg/kg oral): 331.69 ± 98.67 | Ngal mRNA expression, kidney ([1]; 10 mg/kg oral): 69.68 ± 25.32 | Il1 mRNA expression, kidney ([2]; 0.1 mg/kg oral): 2.83 ± 1.00 | Il6 mRNA expression, kidney ([2]; 0.1 mg/kg oral): 27.33 ± 11.81 | Il1 mRNA expression, kidney ([2]; 1 mg/kg oral): 2.79 ± 1.31 | Il6 mRNA expression, kidney ([2]; 1 mg/kg oral): 23.47 ± 6.54 | Il1 mRNA expression, kidney ([2]; 10 mg/kg oral): 1.65 ± 1.00 | Il6 mRNA expression, kidney ([2]; 10 mg/kg oral): 17.94 ± 9.61 | Havcr1 mRNA expression, kidney ([3]; 0.1 mg/kg oral): 117.81 ± 37.55 | Ngal mRNA expression, kidney ([3]; 0.1 mg/kg oral): 145.28 ± 50.31 | Havcr1 mRNA expression, kidney ([3]; 1 mg/kg oral): 88.33 ± 33.24 | Ngal mRNA expression, kidney ([3]; 1 mg/kg oral): 118.82 ± 38.60 | Havcr1 mRNA expression, kidney ([3]; 10 mg/kg oral): 93.99 ± 49.52 | Ngal mRNA expression, kidney ([3]; 10 mg/kg oral): 104.98 ± 18.55 | Il1 mRNA expression, kidney ([4]; 0.1 mg/kg oral): 5.45 ± 2.35 | Il6 mRNA expression, kidney ([4]; 0.1 mg/kg oral): 52.89 ± 40.54 | Tnf mRNA expression, kidney ([4]; 0.1 mg/kg oral): 4.21 ± 0.82 | Il1 mRNA expression, kidney ([4]; 1 mg/kg oral): 3.49 ± 0.93 | Il6 mRNA expression, kidney ([4]; 1 mg/kg oral): 32.19 ± 25.90 | Tnf mRNA expression, kidney ([4]; 1 mg/kg oral): 3.80 ± 0.40 | Il1 mRNA expression, kidney ([4]; 10 mg/kg oral): 3.19 ± 0.85 | Il6 mRNA expression, kidney ([4]; 10 mg/kg oral): 31.08 ± 18.80 | Tnf mRNA expression, kidney ([4]; 10 mg/kg oral): 3.06 ± 0.47 | Col1a1 mRNA expression, kidney ([5]; 0.1 mg/kg oral): 10.58 ± 2.78 | α-Sma mRNA expression, kidney ([5]; 0.1 mg/kg oral): 6.33 ± 0.96 | Col1a1 mRNA expression, kidney ([5]; 1 mg/kg oral): 11.02 ± 2.81 | α-Sma mRNA expression, kidney ([5]; 1 mg/kg oral): 6.01 ± 1.21 | Col1a1 mRNA expression, kidney ([5]; 10 mg/kg oral): 9.31 ± 2.28 | α-Sma mRNA expression, kidney ([5]; 10 mg/kg oral): 4.86 ± 0.99 | activation at 1 µM (T cells / MDSCs; Mus musculus, T-cell, 12 h, read-out: T-cell proliferation rate (%), 1 μM, MDSCs treated 12 hours, co-culture of MDSCs and T cells, compared to the control group): 20 to 40% | Tumor Inhibition Rate (Hepa1-6 cells): 96.22% | Tumor weight (Hepa1-6 cells): 0.03 ± 0.06 g | Spleen T cells (%) (T cells): 34.22 ± 4.88 % | Tumor T cells (%) (T cells): 27.62 ± 5.12 % | proportion of T cells in tumor tissues and spleens (T cells): significantly increased | Tumor inhibition rate (%) (CT26 cells; 80 μmol/kg/day, CT26): 39.72%* | Tumor weight (CT26 cells; 80 μmol/kg/day, CT26): 4.86 ± 0.72 g | tumor-inhibiting effect, CT26 (CT26 cells; result in words): tumor-inhibiting effects
